Experimental data reported in article PMC2975748 (Journal of molecular and cellular cardiology, 2010).

Biological target: cardiac troponin C (cTnC), regulatory N-domain (cNTnC) (Homo sapiens, UniProt P19429+P63316)
Experiment: 1H, […]-HSQC NMR titration
Type: binding

Chain of cardiac troponin C (cTnC), regulatory N-domain (cNTnC) (P63316 1-89): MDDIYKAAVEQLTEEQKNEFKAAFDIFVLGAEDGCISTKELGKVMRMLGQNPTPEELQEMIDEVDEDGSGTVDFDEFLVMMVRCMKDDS
Chain of cardiac troponin C (cTnC), regulatory N-domain (cNTnC) (P19429 145-164): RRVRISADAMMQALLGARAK

**Q.** Which Kd does the source give for `O=C(O)Cc1ccc(-c2ccc(F)cc2F)cc1` [dfbp, 2’ ,4’-difluoro(1,1’-biphenyl)-4-yl acetic acid] here?
**A.** 2.82 ± 0.48 mM
